Tested on: complementary strand of DNA
Assay: Thermal denaturation of DNA-dendrimer conjugate hybridized with complementary strand
Type: binding

native: unmodified single stranded DNA, sequence TTC TCT TCA GTT CAC A (5′ to 3′) (DNA TTCTCTTCAGTTCACA; unmodified DNA)
Tm (thermal denaturation, melting temperature): 52.3 °C

From US7097856B2, “Dendrimeric support or carrier macromolecule” (priority 2000, dated 2006)
